System: NIH3T3/vSrc cells
Assay: WST-1 cell viability/proliferation assay, NIH3T3/vSrc
Format: cell-based, mouse
Description: Initial in vitro whole-cell experiments were conducted against normal mouse NIH-3T3 fibroblasts and v-src-transformed counterparts (NIH-3T3/v-src) that harbor aberrant STAT3. Inhibitor effects upon cell viability, proliferation, and cytotoxicity were assessed through WST-1, a cell proliferation reagent that measures the metabolic activity of viable cells. […] It is assumed that the predominantly hydrophobic nature of these compounds facilitated successful permeation of the cell membrane despite the phosphate.

## CC(C)C[C@H](NC(=O)[C@H](Cc1ccc(OP(=O)(O)O)cc1)NC(=O)c1ccc(C#N)cc1)C(=O)O [ISS610]
  inhibitor concentration required for suppression in whole cells: millimolar concentrations
